As a reminder, the MIC is the least concentration at which growth counts as inhibited.

Values after ≈ are worked out from the molar mass of the structure shown. Active and inactive are the calls of the source. The calls are words filed in the database; no cut-off is given here.

1 molecule from ChEMBL document CHEMBL3045774, “Viridepyronone, a new antifungal 6-substituted 2H-pyran-2-one produced by Trichoderma viride” (2003) can be followed below.

Experiment [1] concerns Athelia rolfsii. Briefly: Antifungal activity against Athelia rolfsii assessed as growth inhibition after 3 days. The class given is functional. As to conditions: Agroathelia rolfsii, 72 h.
The subject of experiment [2] is Athelia rolfsii. Briefly: Antifungal activity against Athelia rolfsii assessed as growth inhibition at 6.9 x 10^-2 M after 3 days by paper disk assay relative to control. The class given is functional. The note with it: Agroathelia rolfsii, 72 h; read-out: GI.
Experiment [3] has as its system Athelia rolfsii. Put plainly: Antifungal activity against Athelia rolfsii assessed as mycelial growth inhibition at 246 ug/mL after 3 days. As to conditions: Agroathelia rolfsii. In kind it is functional, organism-based.

Regarding `CC(=O)CCCc1cccc(=O)o1` [VIRIDEPYRONONE], the MIC in the experiment with Athelia rolfsii [1] turned out to be 196 µg/mL (≈ 1090 µM). Further, the inhibition of growth at 69000 µM in the experiment with Athelia rolfsii [2] is 48%. The “growth inhibition (GI)” value in the experiment with Athelia rolfsii [3] was “Active”.
